Results reported in US8026219B2, “Antimicrobial linear peptides” (Universitat de Girona, priority 2006, dated 2011).
Starred links: 1 amine or outer side, 2 acyl side, 3 side chain; linkers in the order of their positions; H or OH if unused. Non-standard residues stand in square brackets, D forms with d. Residues, ends and D or L forms follow the SMILES beside them. No end group written: not given here. *: point of attachment. X1 = O=C([C@H](Cc1c[nH]c2ccccc12)N(Cc1ccccc1)[*:1])[*:2]; Tos = Cc1ccc(S(=O)(=O)*)cc1

Tests used:
[1] = tested on: Xanthomonas vesicatori 2133-2; assay: Minimum inhibitory concentration (MIC), microbial growth by optical density; settings: 48 h incubation at 25° C., TSB medium
Procedure: All the bacteria were stored at a temperature of −80° C. in Luria-Bertani (LB) medium supplemented with 20% glycerine in volume/volume.
In all cases they were resuspended in sterile water to obtain a suspension adjusted to an absorbance of 0.2 to 60 nm, which approximately corresponds to 10^8 colony forming units.
To determine the minimum inhibitory concentration (MIC), the peptides were solubilized in milli-Q sterile water until a final concentration of 1000 μM and they were filtered through a 0.22 μm pore size filter.
Dilutions of the peptides of the invention were made to obtained solutions at the concentrations of 750, 500, 250, 200, 150, 125, 100, 75, 50 and 25 μM.
20 μl of each dilution were mixed with 20 μl of the suspension of the corresponding bacterial indicator, and 160 μl of the TSB (Trypticase Soy Broth) liquid medium until a total volume of 200 μl in each well of a microplate.
Two replicas were carried out for each strain, concentration and peptide under study.
The positive controls contained water instead of peptide, and the negative controls contained the peptides without the bacterial suspension.
The microbial growth was determined automatically by optical density at 600 nm using the Microbiology Analyser Bioscreen C (Labsystems)
The microplates were incubated at 25° C. for 48 hours with stirring for 20 seconds before measuring the absorbance every hour. Each experiment was performed twice.

Proteinase K = Proteinase K (Parengyodontium album, UniProt P06873); assay: in vitro; settings: Proteinase K (1 μg/ml), pH 7.6
Procedure: The degradation is expressed as the percentage of peptide degraded after a determined time interval calculated from the decrease in the area of the peak of the native peptide by HPLC.
The stability of the peptides of the invention to degradation by proteases is determined by a peptide digestion test by Proteinase K (Sigma-Aldrich Corporation, Madrid, Spain).
A solution of 50 μg/ml of the peptide and 1 μg/ml of Proteinase K in 100 mM TRIS buffer at pH 7.6 was used, at ambient temperature.
The progress of the peptide excision was determined chromatographically at times between 5 and 45 minutes. To do this a reverse phase C18 column was used (Kromasil, 4.6×40 mm; 3.5 μm particle size), and linear gradients from 0.98:0.02 to 0:1 during 7 min performing the detection by absorbance in ultraviolet light at 220 nm.

[2] = tested on: Pseudomonas syringae EPS94; assay: Minimum inhibitory concentration (MIC), microbial growth by optical density; assay type: cell-based; settings: 48 h incubation at 25° C., TSB medium
Procedure: (§1) Each experiment was performed twice.

[3] = tested on: Erwinia amylovora PMV6076; assay: as above; assay type: cell-based; settings: 48 h incubation at 25° C., TSB medium
Procedure: as §1

[4] = tested on: erythrocytes from fresh human blood; settings: 5% erythrocytes, 1 h at 37° C., relative to 200 μM melittin; for % Haemolysis 50 μM: 50 μM peptide; for % Haemolysis 150 μM: 150 μM peptide; for % Haemolysis 250 μM: 250 μM peptide
Procedure: A description of the methodology used to determine the haemolytic activity is found in Oren et al, Biochemistry, 2000, 39, 6103-6114, and in Raguse et al., J. Am. Chem. Soc., 2002, 124, 12774-12785.
The haemolytic activity of the peptides of the invention was evaluated by determining the release of haemoglobin which is produced on placing in contact a solution of the peptides with a suspension of erythrocytes 5% by volume, from fresh human blood.
The blood was collected aseptically using a Vactainer® K2E system (Belliver, Great Britain) with EDTA and it was stored at 4° C. for a period lower than 2 hours.
The blood was centrifuged at 6000 g for 5 minutes to separate the erythrocytes. There were washed three times with TRIS buffer (10 mM TRIS, 150 mM NaCl, pH 7.2) and they were resuspended in TRIS buffer until obtaining a suspension which contained 10% by volume of erythrocytes.
The peptides were solubilized in TRIS buffer until a final concentration of 100, 300 and 500 μM
The replicas were used for each peptide and concentration.
65 μl of 10% erythrocyte suspension was mixed with 65 μl of the peptide solution in each well of a 96-well plate (Micro-Amp®, Applied Biosystems, USA) (5% by volume of erythrocytes) and the mixture was incubated for 1 h at 37° C. under stirring. In this way, the erythrocyte suspensions were subjected to peptide concentrations of 50, 150 and 250 μM.
Next, the plates were centrifuged at 3500 g during 10 minutes and aliquots were transferred of 80 μl of supernatant to microplates with 100 wells (Bioscreen), which were diluted with 80 μl of milli-Q water.
The degree of haemolysis was determined from the absorbance at 540 nm with a Bioscreen plate reader.
The complete positive haemolysis control was determined in a TRIS buffer solution which contained 200 μM melittin (Sigma-Aldrich, Spain)
The percentage of haemolysis (H) was determined using the following equation: H=100×[Op−Ob)/(Om−Ob)]
Where OP as the optical density measured for a determined peptide concentration, Ob was the optical density of the buffer solution, and Om was the optical density for the positive control with melittin.

[5] = listed as peptide described by Cavallarin et al

Proteinase K, sequence (P06873 106-384): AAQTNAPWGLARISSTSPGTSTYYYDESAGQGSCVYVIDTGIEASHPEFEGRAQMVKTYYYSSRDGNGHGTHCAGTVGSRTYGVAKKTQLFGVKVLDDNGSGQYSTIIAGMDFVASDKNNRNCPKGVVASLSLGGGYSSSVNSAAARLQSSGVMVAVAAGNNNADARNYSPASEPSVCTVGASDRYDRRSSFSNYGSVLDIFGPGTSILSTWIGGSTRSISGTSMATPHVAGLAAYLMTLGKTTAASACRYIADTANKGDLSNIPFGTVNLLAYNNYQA

Compound | range of concentrations including the MIC, X. vesicatoria [1, 5] | metabolised at 0.75 h, 50 μg/ml (Proteinase K) | range of concentrations including the MIC, P. syringae [2, 5] | range of concentrations including the MIC, E. amylovora [3, 5] | range of concentrations including the MIC, X. vesicatoria [1] | % Haemolysis 50 μM [4] | % Haemolysis 150 μM [4] | % Haemolysis 250 μM [4] | range of concentrations including the MIC, P. syringae [2] | range of concentrations including the MIC, E. amylovora [3]
WKLFKKILKVL-NH2 [Comparative example, reference compound] | over 7.5 μM | 100% | over 7.5 μM | over 7.5 μM |  |  |  |  |  | 
CC[C@H](C)[C@H](NC(=O)[C@H](CCCCN)NC(=O)[C@H](CCCCN)NC(=O)[C@H](Cc1ccccc1)NC(=O)[C@H](CC(C)C)NC(=O)[C@H](CCCCN)NC(=O)[C@H](Cc1c[nH]c2ccccc12)NS(=O)(=O)c1ccc(C)cc1)C(=O)N[C@@H](CC(C)C)C(=O)N[C@@H](CCCCN)C(=O)N[C@H](C(=O)N[C@@H](CC(C)C)C(N)=O)C(C)C [BP009] (Tos-WKLFKKILKVL-NH2) |  | 100% |  |  |  |  |  |  |  | 
CC[C@H](C)[C@H](NC(=O)[C@H](CCCCN)NC(=O)[C@H](CCCCN)NC(=O)[C@H](Cc1ccccc1)NC(=O)[C@H](CC(C)C)NC(=O)[C@H](CCCCN)NC(=O)[C@@H](N)CCCCN)C(=O)N[C@@H](CC(C)C)C(=O)N[C@@H](CCCCN)C(=O)N[C@@H](Cc1ccc(O)cc1)C(=O)N[C@@H](CC(C)C)C(N)=O [BP100] |  | 60% |  |  | 5 to 7.5 µM | 3% | 22% | 43% |  | 
CC[C@H](C)[C@H](NC(=O)[C@H](CCCCN)NC(=O)[C@H](CCCCN)NC(=O)[C@H](Cc1ccccc1)NC(=O)[C@H](CC(C)C)NC(=O)[C@H](CCCCN)NC(=O)[C@H](Cc1ccc(O)cc1)NS(=O)(=O)c1ccc(C)cc1)C(=O)N[C@@H](CC(C)C)C(=O)N[C@@H](CCCCN)C(=O)N[C@@H](CCCCN)C(=O)N[C@@H](CC(C)C)C(N)=O [BP121] (Tos-YKLFKKILKKL-NH2) |  |  |  |  | 2.5 to 5 µM | 22% | 81% | 86% | 2.5 to 5 µM | >7.5 µM
FKLFKKILKFL-NH2 [BP066] |  |  |  |  | 2.5 to 5 µM | 9% | 63% | 89% | 5 to 7.5 µM | 2.5 to 5 µM
YKLFKKILKWL-NH2 [BP047] |  |  |  |  | 2.5 to 5 µM | 81% | 76% | 82% | 5 to 7.5 µM | 5 to 7.5 µM
CC[C@H](C)[C@H](NC(=O)[C@H](CCCCN)NC(=O)[C@H](CCCCN)NC(=O)[C@H](Cc1ccccc1)NC(=O)[C@H](CC(C)C)NC(=O)[C@H](CCCCN)NC(=O)[C@H](CCCCN)NC(=O)c1ccccc1)C(=O)N[C@@H](CC(C)C)C(=O)N[C@@H](CCCCN)C(=O)N[C@@H](Cc1ccc(O)cc1)C(=O)N[C@@H](CC(C)C)C(N)=O [BP103] |  |  |  |  | <2.5 µM | 42% | 83% | 80% | 5 to 7.5 µM | 7.5 µM
CC[C@H](C)[C@H](NC(=O)[C@H](CCCCN)NC(=O)[C@H](CCCCN)NC(=O)[C@H](Cc1ccccc1)NC(=O)[C@H](CC(C)C)NC(=O)[C@H](CCCCN)NC(=O)[C@H](CCCCN)NC(=O)c1ccccc1)C(=O)N[C@@H](CC(C)C)C(=O)N[C@@H](CCCCN)C(=O)N[C@H](C(=O)N[C@@H](CC(C)C)C(N)=O)C(C)C [BP031] |  |  |  |  | <2.5 µM | 34% | 71% | 76% | 5 to 7.5 µM | 2.5 to 5 µM
CC[C@H](C)[C@H](NC(=O)[C@H](CCCCN)NC(=O)[C@H](CCCCN)NC(=O)[C@H](Cc1ccccc1)NC(=O)[C@H](CC(C)C)NC(=O)[C@H](CCCCN)NC(=O)[C@H](CCCCN)NS(=O)(=O)c1ccc(C)cc1)C(=O)N[C@@H](CC(C)C)C(=O)N[C@@H](CCCCN)C(=O)N[C@@H](Cc1ccccc1)C(=O)N[C@@H](CC(C)C)C(N)=O [BP078] |  |  |  |  | <2.5 µM | 40% | 85% | 95% | 5 to 7.5 µM | 5 to 7.5 µM
CC[C@H](C)[C@H](NC(=O)[C@H](CCCCN)NC(=O)[C@H](CCCCN)NC(=O)[C@H](Cc1ccccc1)NC(=O)[C@H](CC(C)C)NC(=O)[C@H](CCCCN)NC(=O)[C@@H](N)CC(C)C)C(=O)N[C@@H](CC(C)C)C(=O)N[C@@H](CCCCN)C(=O)N[C@@H](Cc1ccc(O)cc1)C(=O)N[C@@H](CC(C)C)C(N)=O [BP105] |  |  |  |  | 2.5 to 5 µM | 14% | 91% | 90% | 5 to 7.5 µM | 5 µM
LKLFKKILKFL-NH2 [BP081] |  |  |  |  | <2.5 µM | 10% | 65% | 88% | 2.5 to 5 µM | 2.5 to 5 µM
CC[C@H](C)[C@H](NC(=O)[C@H](CCCCN)NC(=O)[C@H](CCCCN)NC(=O)[C@H](Cc1ccccc1)NC(=O)[C@H](CC(C)C)NC(=O)[C@H](CCCCN)NC(=O)[C@H](Cc1c[nH]c2ccccc12)NCc1ccccc1)C(=O)N[C@@H](CC(C)C)C(=O)N[C@@H](CCCCN)C(=O)N[C@H](C(=O)N[C@@H](CC(C)C)C(N)=O)C(C)C [BP011] (H-[X1]KLFKKILKVL-NH2) |  |  |  |  | 2.5 to 5 µM | 81% | 96% | 100% | 5 to 7.5 µM | 5 to 7.5 µM
CC[C@H](C)[C@H](NC(=O)[C@H](CCCCN)NC(=O)[C@H](CCCCN)NC(=O)[C@H](Cc1ccccc1)NC(=O)[C@H](CC(C)C)NC(=O)[C@H](CCCCN)NC(=O)[C@@H](N)Cc1ccccc1)C(=O)N[C@@H](CC(C)C)C(=O)N[C@@H](CCCCN)C(=O)N[C@@H](Cc1ccc(O)cc1)C(=O)N[C@@H](CC(C)C)C(N)=O [BP090] |  |  |  |  | 2.5 to 5 µM | 11% | 57% | 84% | 5 to 7.5 µM | 5 to 7.5 µM
WKLFKKILKWL-NH2 [BP018] |  |  |  |  | 2.5 µM | 78% | 68% | 74% | 5 to 7.5 µM | 5 to 7.5 µM
Ac-WKLFKKILKVL-NH2 [BP008] |  | 100% |  |  |  |  |  |  |  | 
Ac-WKLFKKILKWL-NH2 [BP038] |  |  |  |  | <2.5 µM | 80% | 86% | 80% | >7.5 µM | >7.5 µM
CC[C@H](C)[C@H](NC(=O)[C@H](CCCCN)NC(=O)[C@H](CCCCN)NC(=O)[C@H](Cc1ccccc1)NC(=O)[C@H](CC(C)C)NC(=O)[C@H](CCCCN)NC(=O)[C@H](Cc1ccc(O)cc1)NS(=O)(=O)c1ccc(C)cc1)C(=O)N[C@@H](CC(C)C)C(=O)N[C@@H](CCCCN)C(=O)N[C@@H](Cc1ccc(O)cc1)C(=O)N[C@@H](CC(C)C)C(N)=O [BP097] |  |  |  |  | <2.5 µM | 83% | 81% | 88% | >7.5 µM | >7.5 µM
